Assay results from paper PMC5926957 (Japanese Journal of Cancer Research : Gann, 2002).

Target: P-glycoprotein (P-gp) (Homo sapiens, UniProt P08183)
Assay: calcein-AM efflux assay in L-MDR1 vs LLC-PK1 cells
Format: cell-based

Sequence of P-glycoprotein (P-gp) (P08183 whole entry): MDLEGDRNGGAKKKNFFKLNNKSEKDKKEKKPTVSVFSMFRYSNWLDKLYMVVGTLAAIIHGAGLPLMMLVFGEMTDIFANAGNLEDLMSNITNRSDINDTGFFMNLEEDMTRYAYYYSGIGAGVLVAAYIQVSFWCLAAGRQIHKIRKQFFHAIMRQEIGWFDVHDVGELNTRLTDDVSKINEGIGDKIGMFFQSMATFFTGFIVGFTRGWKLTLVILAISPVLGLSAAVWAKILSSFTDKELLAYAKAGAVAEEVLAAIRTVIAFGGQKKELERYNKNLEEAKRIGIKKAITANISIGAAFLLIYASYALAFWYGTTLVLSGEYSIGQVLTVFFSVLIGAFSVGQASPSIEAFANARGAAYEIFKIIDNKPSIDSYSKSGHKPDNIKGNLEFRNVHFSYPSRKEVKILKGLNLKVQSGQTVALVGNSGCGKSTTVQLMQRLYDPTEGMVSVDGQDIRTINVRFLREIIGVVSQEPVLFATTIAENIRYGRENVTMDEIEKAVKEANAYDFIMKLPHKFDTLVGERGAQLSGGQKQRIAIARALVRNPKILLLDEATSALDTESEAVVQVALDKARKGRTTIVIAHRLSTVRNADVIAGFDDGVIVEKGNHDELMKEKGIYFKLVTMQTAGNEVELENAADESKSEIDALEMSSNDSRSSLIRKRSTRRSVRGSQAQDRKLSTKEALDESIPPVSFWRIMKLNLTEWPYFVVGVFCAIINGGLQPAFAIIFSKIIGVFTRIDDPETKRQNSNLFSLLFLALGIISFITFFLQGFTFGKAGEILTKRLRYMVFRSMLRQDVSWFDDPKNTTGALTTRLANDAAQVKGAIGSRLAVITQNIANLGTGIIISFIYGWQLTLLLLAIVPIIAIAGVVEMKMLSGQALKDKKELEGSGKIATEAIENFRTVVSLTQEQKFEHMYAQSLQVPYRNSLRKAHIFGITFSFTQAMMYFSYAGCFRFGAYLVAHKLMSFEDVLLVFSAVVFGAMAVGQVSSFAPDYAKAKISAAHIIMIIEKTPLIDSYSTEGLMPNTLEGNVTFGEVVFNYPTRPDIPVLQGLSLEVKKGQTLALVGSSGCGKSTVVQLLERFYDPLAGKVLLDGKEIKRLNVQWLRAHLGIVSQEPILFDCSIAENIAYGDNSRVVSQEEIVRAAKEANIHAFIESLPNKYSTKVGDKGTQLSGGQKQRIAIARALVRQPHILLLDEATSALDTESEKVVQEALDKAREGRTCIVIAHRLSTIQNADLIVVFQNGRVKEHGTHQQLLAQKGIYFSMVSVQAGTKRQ

SMILES: CC(C)C[C@H]1C(=O)N2CCC[C@H]2[C@]2(O)O[C@](NC(=O)[C@@H]3C=C4c5cccc6[nH]c(Br)c(c56)C[C@H]4N(C)C3)(C(C)C)C(=O)N12 [bromocriptine]
- Ki: 6.52 µM
